From PMC5007466, “VCP recruitment to mitochondria causes mitophagy impairment and neurodegeneration in models of Huntington's disease” (Nature Communications, 2016)

How the values were obtained:
R6/2 mice = assay: Body weight and survival, R6/2; format: in vivo, mouse; details: R6/2, 5–13 weeks of age, 3 mg kg^−1 per day, n=15
Description: Male hemizygous R6/2 mice (Tg) and their age-matched wt littermates (5-week-old) were implanted with a 28-day osmotic pump (Alzet, Cupertino CA) containing TAT control peptide or HV-3 peptide, which delivered peptides to the mice at a rate of 3 mg kg^−1 per day. The first pump was implanted subcutaneously in the back of 5-week-old mice between the shoulders and replaced once, after 4 weeks.
The body weight and survival rate of HD mice and wt littermates were recorded throughout the study period.

[1] = system: interaction between VCP and UBXD1; assay: Co-immunoprecipitation VCP/UBXD1; format: cell-based; details: HV-3 treatment; total cell lysates, IP/WB
Description: (b) Stick drawings of VCP and Htt main domains. […] Immunoprecipitates were analysed by WB with the indicated antibodies. […] VCP mitochondrial levels were determined by WB. Loading control: VDAC. Data are mean±s.e.m. (g–i) ANOVA with Holm-Sidak post hoc test.

[2] = system: VCP/Htt interaction (GST-VCP with full-length Htt of mouse brain lysate); assay: GST pull-down of VCP/Htt interaction; format: binding; details: GST-VCP + total mouse brain lysate, 3 µM peptide, 16 h, n = 3
Description: Bacteria-expressed GST or GST–VCP, or GST–VCP truncated mutants were immobilized on glutathione-Sepharose 4B beads (GE Healthcare) for three hours and then washed three times. Beads were incubated with total lysates of mouse brains overnight at 4 °C. Beads were then washed with a GST binding buffer (100 mM NaCl, 50 mM NaF, 2 mM EDTA, 1% Triton-X-100 and protease inhibitor cocktail) and were analysed by SDS–PAGE and IB.
Supplementary Figure 4: Rational design of a peptide inhibitor to block VCP/Htt interaction. (a) GST or GST-VCP was incubated with total lysates of mouse brain and the indicated peptides ( 3 µM) for 16 hours, followed by immunoblotting with anti-Htt antibodies. Representative blots are from three independent experiments. Quantitation of VCP/Htt binding was shown below the blot as the m ean of three independent experiments. Data are mean ± SEM. *, p<0.05 vs. T AT -treated group (Paired Student’s t test). (b) HEK293 cells were co-expressed with GFP-VCP and Myc-73Q FL plasmids as indicated. After 48 hours incubation with the indicated peptides ( 3 µM/day, each), immunoprecipitation analysis was performed. The shown blots are from three independent experiments. (c) HEK293 cells were co-expressed with GFP-VCP and Myc-73Q FL plasmids as indicated. […] The blots of the bindings of mtHtt/VCP were quantitated with NIH Image J software. The IC50 was calculated. […]

C57Black mice = assay: Hematology of naive mice; format: in vivo, mouse; details: 3 mg/kg/day, 4 weeks
Description: Supplementary Figure 8 : Toxicity analysis of HV -3in naïve mice .
We performed a toxicity analysis of HV-3 in mice. Six -week-old C57Black mice were treated with saline or peptide HV-3 at 3mg/kg/day by Alzet pump implantation. After 4- week treatment, the plasma, blood and whole mouse bodies of mice were collected. Examination on blood chemistry (Supplementary Table 1), hematology (Supplementary Table 2) and general necropsy of mice were performed at the Animal Diagnostic Laboratory at Stanford University. The experimenter who conducted the analysis was blind to the treatment groups. Automated hematology was performed on the Sysmex XT-2000iV analyzer system. Blood smears were made for all full CBC samples and reviewed by a medical technologist. Manual differentials were performed as indicated by species and automated analysis. Chemistry analysis was performed on the Siemens Dimension Xpand analyzer. […]
Student’s t test. Four-week sustained treatment with HV-3 by pump implantation had no effects on blood chemistry (Supplementary Table 1), hematology (Supplementary Table 2), and gross necropsy of naïve mice when compared to mice treated with saline. […]
Table 2: Effects of 4-w eek treatment w ith HV-3 on hematology of naïve mice […]
Mean SD Mean SD p-value unit n

YAC128 mice = assay: Stereology of NeuN-positive striatal neurons; format: in vivo, mouse; details: YAC128, 12 months of age, 3 mg/kg/day, n=6
Description: YAC128 mice (Tg) and their age-matched wt littermates were implanted with an osmotic pump containing TAT control peptide or HV-3 peptide (3 mg/kg/day, each) starting from the age of 3 months. The pump was replaced once every month. By the age of 12 months, the treatments were terminated and the mouse samples were harvested for analysis.
To measure the number of NeuN-positive cells, a series of 25 μm thick coronal sections spaced 200 μm apart spanning the striatum were stained with NeuN antibody (Millipore, 1:500) and visualized by diaminobenzidine. For neuropathological analyses, brain sections were analysed stereologically. Briefly, unbiased stereological counts of NeuN-positive neurons within the striatum were performed using unbiased stereological principles and analysed with StereoInvestigator software (Microbrightfield, Williston, VT). Optical fractionator sampling was carried out on a Leica DM5000B microscope (Leica Microsystems, Bannockburn, IL) equipped with a motorized stage and Lucivid attachment ( × 40 objective). The following parameters were used in the final study: grid size, (X) 500 μm, (Y) 500 μm; Counting frame, (X) 68.2 μm, (Y) 75 μm, depth was 20 μm. […] The total volume of stratial tissue measured in each brain is calculated by StereoInvestigator and the neuronal density is presented as NeuN positive cell number per mm^3.

## CSCC[C@H](NC(=O)[C@@H](NC(=O)[C@H](CC(C)C)NC(=O)[C@@H](NC(=O)[C@H](Cc1c[nH]cn1)NC(=O)CCCCCNC(=O)[C@H](CCCNC(=N)N)NC(=O)[C@H](CCCNC(=N)N)NC(=O)[C@H](CCCNC(=N)N)NC(=O)[C@H](CCC(N)=O)NC(=O)[C@H](CCCNC(=N)N)NC(=O)[C@H](CCCNC(=N)N)NC(=O)[C@H](CCCCN)NC(=O)[C@H](CCCCN)NC(=O)[C@H](CCCNC(=N)N)NC(=O)CNC(=O)[C@@H](N)Cc1ccc(O)cc1)C(C)C)C(C)C)C(=O)N[C@@H](CS)C(=O)N[C@@H](C)C(=O)N[C@H](C(N)=O)[C@@H](C)O [HV-3]
R6/2 mice
  body weight: increased body weight
  survival rate: increased body weight and survival rate
[1]
  interaction between VCP and UBXD1: nor did it influence the interaction between VCP and its known binding protein UBXD1
[2]
  block of VCP/Htt interaction: only the addition of peptide HV-3 blocks the interaction of VCP/Htt
C57Black mice; mean, n = 4/group
  Eosinophils: 37.00
  HCT: 44.60%
  Hgb: 13.93 gm/dL
  IRF: 53.97%
  Lymphocytes: 1645.00
  MCH: 14.90 pg
  MCHC: 31.27 g/dL
  MCV: 47.67 fL
  Monocytes: 182.33
  Neutrophils: 1525.67
  Platelet count: 1021.33 K/uL
  RBC: 9.37 M/uL
  RDW: 21.77%
  Reticulocyte Count: 4.30%
  WBC: 3.39 K/uL
C57Black mice; versus saline
  hematology (overall): no effects
YAC128 mice
  NeuN-positive neurons in dorsolateral striatum: significantly increased the number of neurons positive for anti-NeuN immunostaining
